Assay results published in ChEMBL document CHEMBL4364294 (J Med Chem, 2019).
Converted amounts (≈) assume the structure as drawn.

Experiments:
[1] = Intrinsic clearance in human liver microsomes; assay type: ADME, Microsome; details: read-out: CLH
[2] = Aqueous solubility of the compound at pH 1; assay type: physicochemical
[3] = Aqueous solubility of the compound at pH 6.5; assay type: physicochemical
[4] = Aqueous solubility of the compound at pH 7.4; assay type: physicochemical

Row | SMILES | predicted hepatic clearance [1] | also measured
1 | OC(CC1c2ccccc2-c2cncn21)C1CCCCC1 (stereo not drawn) | 18 mL/min/kg | 
2 | O[C@@H](C[C@H]1c2c(F)cccc2-c2cncn21)[C@H]1CC[C@H](O)CC1 | 6.2 mL/min/kg | 
3 | OC(CC1c2c(F)cccc2-c2cncn21)C1CCC(F)(F)CC1 (stereo not drawn) | 15.3 mL/min/kg | 
4 | O[C@@H](C[C@H]1c2c(F)cccc2-c2cncn21)[C@H]1CC[C@@H](O)CC1 | 12.7 mL/min/kg | 
5 | O=C1CCC(C(O)CC2c3c(F)cccc3-c3cncn32)CC1 (stereo not drawn) | 20.3 mL/min/kg | 
6 | O=C(N[C@H]1CC[C@H](C(O)CC2c3ccccc3-c3cncn32)CC1)c1ccccc1 (stereo partly drawn) |  | solubility [2]: 363 µM (≈ 146 µg/mL); solubility [3]: 22 µM (≈ 8.83 µg/mL); solubility [4]: 25 µM (≈ 10 µg/mL)
